Laboratory results published in BindingDB's records for doi:10.3109/14756360903169592 (Ufr Des Sciences Pharmaceutiques Et Ingenierie De La Sante, 2010).

These compounds were tested against T1, Protein farnesyltransferase subunit beta/geranylgeranyltransferase type-1 subunit alpha (Saccharomyces cerevisiae (strain ATCC 204508 / S288c), UniProt P22007+P29703) (assay: Fluorescence-Based PFTase Inhibition Assay). Conditions: pH 7.5; 30 °C.
T1 sequence (P22007 whole entry): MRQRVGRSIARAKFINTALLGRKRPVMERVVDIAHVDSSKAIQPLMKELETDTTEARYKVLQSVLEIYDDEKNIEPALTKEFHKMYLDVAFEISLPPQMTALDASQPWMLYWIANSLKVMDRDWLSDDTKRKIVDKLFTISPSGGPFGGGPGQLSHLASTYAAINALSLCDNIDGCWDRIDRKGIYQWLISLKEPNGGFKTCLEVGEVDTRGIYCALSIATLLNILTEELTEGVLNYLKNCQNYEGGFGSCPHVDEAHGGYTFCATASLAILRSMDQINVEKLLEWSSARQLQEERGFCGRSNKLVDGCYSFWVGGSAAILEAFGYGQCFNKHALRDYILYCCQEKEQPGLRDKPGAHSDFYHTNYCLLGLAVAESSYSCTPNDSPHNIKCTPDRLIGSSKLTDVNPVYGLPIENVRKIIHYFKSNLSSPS
T1 sequence (P29703 whole entry): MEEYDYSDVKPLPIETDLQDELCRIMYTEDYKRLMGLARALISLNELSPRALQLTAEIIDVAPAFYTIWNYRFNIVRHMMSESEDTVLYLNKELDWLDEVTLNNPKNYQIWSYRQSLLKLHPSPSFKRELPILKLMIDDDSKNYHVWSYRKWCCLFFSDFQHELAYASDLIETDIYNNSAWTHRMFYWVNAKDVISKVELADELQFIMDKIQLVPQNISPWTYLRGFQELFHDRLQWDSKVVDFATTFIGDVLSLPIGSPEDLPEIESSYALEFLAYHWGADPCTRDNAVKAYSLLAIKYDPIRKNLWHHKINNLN
Method: Assays were realized on 96-well plates, prepared with Biomek NKMC and Biomek 3000 from Beckman Coulter and read on a Wallac Victor fluorimeter from PerkinElmer. Per well, 20 μL of farnesyl pyrophosphate (10 μM) was added to 180 μL of a solution containing 2 μL of varied concentrations of tested compounds (dissolved in methanol) and 178 μL of a solution composed by 0.1 mL of partially purified recombinant yeast FTase (2.2mg/mL) and 7.0 mL of Dansyl-GCVLS peptide (in the following buffer: 5.8 mM DTT, 12 mM MgCl2, 12 μM ZnCl2, and 0.09% (w/v) CHAPS, 53 mM Tris/HCl, pH 7.5). Then the fluorescence development was recorded for 15 min (0.7 s per well, 20 repeats) at 30°C with an excitation filter at 340 nm and an emission filter at 486 nm.

Q: For C=C1C(=O)O[C@@H]2C[C@H](C)C(/C=C/C(C)=O)=CC[C@H]12 [8-Epi-xanthatin], which IC50 is on record?
A: 64 µM

Q: C=C1C(=O)O[C@H]2C[C@H](C)[C@@]3(/C=C/C(C)=O)O[C@H]3C[C@H]12 [Xanthatin-1,5β-epoxide (4)] was tested. Which IC50 did it give?
A: 500 µM

Q: CC(O)/C=C/C1=CC[C@H]2[C@H](C[C@@H]1C)OC(=O)[C@@H]2C (stereo partly drawn) [4,11β,13-Tetrahydroxanthatin (8)] was tested. Which IC50 did it give?
A: > 1000 µM

Q: For CC(=O)OC(CC(C)O)C1=CC[C@H]2[C@H](C[C@@H]1C)OC(=O)[C@@H]2C (stereo partly drawn) [11β,13-Dihydro-4-epi-isoxanthanol (16)], which IC50 is on record?
A: 633 µM

Q: C=C1C(=O)O[C@H]2C[C@H](C)C(/C=C/C(C)=O)=CC[C@H]12 [Xanthatin (2)] was tested. Which IC50 did it give?
A: 100 µM

Q: C=C1C(=O)O[C@H]2C[C@H](C)c3cc(C(C)=O)oc3C[C@H]12 [3,5-Oxyxanthatin (7)] was tested. Which IC50 did it give?
A: > 1000 µM

Q: With CC(O)CCC1=CC[C@@H]2C(C)C(=O)O[C@H]2C[C@@H]1C (stereo partly specified) [4,11,13-Tetrahydroxanthinosin (14)] as the compound, how does the IC50 read?
A: > 1000 µM

Q: How did the IC50 turn out when C=C1C(=O)O[C@H]2C[C@H](C)C(C(CC(C)OC(C)=O)OC(C)=O)=CC[C@H]12 (stereo partly drawn) [Acetyl-4-epi-isoxanthanol (6)] was run?
A: 40 µM

Q: How did the IC50 turn out when C=C1C(=O)O[C@H]2C[C@H](C)C(C(CC(C)O)OC(C)=O)=CC[C@H]12 (stereo partly drawn) [α-Methylene-γ-lactone, 3] was run?
A: > 1000 µM

Q: For CC(=O)/C=C/[C@@]12O[C@@H]1C[C@H]1[C@H](C[C@@H]2C)OC(=O)[C@@H]1C [11β,13-Dihydroxanthatin-1,5α-epoxide (11)], which IC50 is on record?
A: 90 µM

Q: For C=C1C(=O)O[C@@H]2C[C@H](C)[C@]3(/C=C/C(C)=O)O[C@@H]3C[C@H]12 [8-Epi-xanthatin-1,5α-epoxide], which IC50 is on record?
A: 58 µM

Q: Which IC50 does the source give for C=C1C(=O)O[C@@H]2C3C4(C=C[C@@]3(C)C3(C4)C(=O)O[C@@H]4[C@H]5C(C)=CC(=O)[C@H]5[C@@H](C)C[C@H](OC(=O)/C(C)=C\C)[C@H]43)[C@](C)(O)CC[C@@H]12 (stereo partly specified) [Arteminolide C'] here?
A: 0.95 µM

Q: With C=C1C(=O)O[C@H]2C[C@H](C)C(C(CC(C)=O)OC(C)=O)=CC[C@H]12 (stereo partly drawn) [α-Methylene-γ-lactone, 1] as the compound, how does the IC50 read?
A: 150 µM

Q: Which IC50 does the source give for C=C1C(=O)O[C@H]2C[C@H](C)[C@]3(/C=C/C(C)=O)O[C@@H]3C[C@H]12 [Xanthatin-1,5α-epoxide (5)] here?
A: 100 µM

Q: Which IC50 does the source give for C/C=C(/C)C(=O)O[C@H]1C[C@H](C)[C@@H]2C(=O)C=C(C)[C@@H]2[C@H]2OC(=O)C3(CC45C=C[C@]3(C)C4[C@H]3OC(=O)C(C)[C@@H]3CC[C@@]5(C)O)[C@@H]21 (stereo partly specified) [Arteminolide C] here?
A: 1 µM

Q: C/C=C(/C)C(=O)O[C@H]1[C@H]2[C@H](C)C(=O)O[C@@H]2C[C@@H](C)[C@@H]2C=CC(=O)[C@]21C [6-O-angeloylprenolin] was tested. Which IC50 did it give?
A: 18.8 µM

Q: With CC(=O)/C=C/[C@]12O[C@H]1C[C@H]1[C@H](C[C@@H]2C)OC(=O)[C@@H]1C [11β,13-Dihydroxanthatin-1,5β-epoxide (12)] as the compound, how does the IC50 read?
A: 66 µM

Q: With CC(=O)/C=C/C1=CC[C@H]2[C@H](C[C@@H]1C)OC(=O)[C@@H]2C [11β,13-Dihydroxanthatin (10)] as the compound, how does the IC50 read?
A: 210 µM

Q: How did the IC50 turn out when CC(=O)OC(C)/C=C/C1=CC[C@H]2[C@H](C[C@@H]1C)OC(=O)[C@@H]2C (stereo partly drawn) [2,3-(E)-Dehydro-4-epi-isoxanthanol (9)] was run?
A: 900 µM

Q: Which IC50 does the source give for CC(=O)CCC1=CC[C@@H]2C(C)C(=O)O[C@H]2C[C@@H]1C (stereo partly specified) [11,13-Dihydroxanthinosin (13)] here?
A: 240 µM

Q: For CC(=O)OC(C)CC(OC(C)=O)C1=CC[C@H]2[C@H](C[C@@H]1C)OC(=O)[C@@H]2C (stereo partly drawn) [Acetyl-11β,13-dihydro-4-epi-isoxanthanol (15)], which IC50 is on record?
A: 40 µM
